In general, EC50 refers to the midpoint of the concentration-response curve.

Like-named read-outs stand apart in the source and are kept apart here.

The values below come from patent US20090221642A1, “MUSCARINIC RECEPTOR AGONISTS, COMPOSITIONS, METHODS OF TREATMENT THEREOF, AND PROCESSES FOR PREPARATION THEREOF-176” (AstraZeneca AB, priority 2008, published 2009).

The target of experiment [1] is T1, hM1 (human Muscarinic receptor subtype 1) (Homo sapiens, UniProt P11229).
T1 construct: expressed in transfected cells; host or cells: CHO cells (Chinese hamster ovary cells, ATCC)
T1 sequence (P11229 1-460): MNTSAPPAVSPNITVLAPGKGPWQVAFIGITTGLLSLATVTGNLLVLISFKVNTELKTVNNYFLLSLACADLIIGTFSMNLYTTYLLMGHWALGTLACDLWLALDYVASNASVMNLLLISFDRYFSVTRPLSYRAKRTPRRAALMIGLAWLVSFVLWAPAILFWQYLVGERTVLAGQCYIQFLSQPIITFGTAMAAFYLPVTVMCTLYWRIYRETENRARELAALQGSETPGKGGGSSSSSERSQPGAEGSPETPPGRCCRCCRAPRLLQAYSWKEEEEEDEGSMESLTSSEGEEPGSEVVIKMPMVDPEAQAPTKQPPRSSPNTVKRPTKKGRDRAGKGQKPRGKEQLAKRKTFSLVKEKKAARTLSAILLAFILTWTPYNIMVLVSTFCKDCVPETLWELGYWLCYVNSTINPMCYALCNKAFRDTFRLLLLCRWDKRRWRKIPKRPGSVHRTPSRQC
Nature of the experiment: Human M1 calcium mobilization FLIPR assay. The class given is cell-based. The conditions noted are these: hM1 expressed in CHO cells, intracellular Ca2+ release. An outline of the steps: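 CHO cells expressing the receptor, dye-loaded at 37°C for 60 min, read on FLIPR at 510-570 nm. Agonism taken from compound-induced Ca2+ rise (max RFU for M1); M3/M5 inhibition measured against 2 nM acetylcholine using max minus min RFU. 10-point threefold dilutions, sigmoidal fits.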

Experiment [2] concerns the target T2, cloned human M2 receptor (human Muscarinic receptor subtype 2) (Homo sapiens, UniProt P08172).
T2 construct: purchased Perkin-Elmer RBHM2M; host or cells: Chinese hamster ovary cells (CHO) membranes
T2 sequence (P08172 1-466): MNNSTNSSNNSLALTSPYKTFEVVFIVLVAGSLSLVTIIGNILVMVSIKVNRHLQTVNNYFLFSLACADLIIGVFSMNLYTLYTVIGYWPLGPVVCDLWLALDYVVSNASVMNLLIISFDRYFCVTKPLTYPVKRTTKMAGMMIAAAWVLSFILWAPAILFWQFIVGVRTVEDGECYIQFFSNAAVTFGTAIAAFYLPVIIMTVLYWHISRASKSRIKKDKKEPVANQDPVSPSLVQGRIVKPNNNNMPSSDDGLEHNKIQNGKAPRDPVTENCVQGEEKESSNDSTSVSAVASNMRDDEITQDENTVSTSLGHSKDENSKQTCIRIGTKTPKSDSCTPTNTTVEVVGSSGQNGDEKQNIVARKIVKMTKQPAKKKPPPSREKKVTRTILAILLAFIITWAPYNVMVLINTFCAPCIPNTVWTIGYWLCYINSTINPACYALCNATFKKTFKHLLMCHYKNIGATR
Nature of the experiment: hM2 receptor GTPγS binding. The class given is biochemical. Particulars: CHO cell membranes expressing hM2, [35S]GTPγS binding. An outline of the steps:
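CHO-cell membranes expressing human M2 receptor, scintillation-bead [35S]GTPγS binding (0.4 nM) with 12.5 μM GDP, pH 7.4 Hepes buffer, 60 min at room temperature. Agonism: stimulation vs 30 μM acetylcholine maximum; antagonism: reversal of 2 μM acetylcholine stimulation. EC50/IC50/Emax from 10-point sigmoidal fits.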

For `CCOC(=O)N1CCC(C)(N2CCC(N3C(=O)Cc4cc(F)ccc43)CC2)C1` (single isomer, unassigned) [Example 79, ethyl 3-(4-(5-fluoro-2-oxoindolin-1-yl)piperidin-1-yl)-3-methylpyrrolidine-1-carboxylate], the EC50 came to 9.2 nM in experiment [1] (read-out: hM1 EC50) and 1130 nM in experiment [2] (read-out: hM2 EC50).

For the compound `CCOC(=O)N1CCC(C)(N2CCC(N3C(=O)Cc4cc(F)ccc43)CC2)C1` (single isomer, unassigned) [Example 80, ethyl 3-(4-(5-fluoro-2-oxoindolin-1-yl)piperidin-1-yl)-3-methylpyrrolidine-1-carboxylate], the EC50 worked out at 69.4 nM in experiment [1] (read-out: hM1 EC50) and 3260 nM in experiment [2] (read-out: hM2 EC50).

Regarding `CCOC(=O)N1CCC(C)(N2CCC(N3C(=O)Cc4cc(F)c(C)cc43)CC2)C1` (single isomer, unassigned) [Example 81, ethyl 3-(4-(5-fluoro-6-methyl-2-oxoindolin-1-yl)piperidin-1-yl)-3-methylpyrrolidine-1-carboxylate], the results for the EC50 in experiment [1] (read-out: hM1 EC50) and in experiment [2] (read-out: hM2 EC50) were 8.7 nM and 1670 nM, respectively.

For `CCOC(=O)N1CCC(C)(N2CCC(N3C(=O)Cc4cc(F)c(C)cc43)CC2)C1` (single isomer, unassigned) [Example 82, ethyl 3-(4-(5-fluoro-6-methyl-2-oxoindolin-1-yl)piperidin-1-yl)-3-methylpyrrolidine-1-carboxylate], the EC50 is 8.7 nM in experiment [1] (read-out: hM1 EC50) and 270 nM in experiment [2] (read-out: hM2 EC50).

For `COC(=O)N1CCC(C)(N2CCC(N3C(=O)Cc4cc(F)c(C)cc43)CC2)C1` (single isomer, unassigned) [Example 83, methyl 3-(4-(5-fluoro-6-methyl-2-oxoindolin-1-yl)piperidin-1-yl)-3-methylpyrrolidine-1-carboxylate], the EC50 turned out to be 26.1 nM in experiment [1] (hM1 EC50 (nM)) and 2840 nM in experiment [2] (hM2 EC50 (nM)).

`COC(=O)N1CCC(C)(N2CCC(N3C(=O)Cc4cc(F)c(C)cc43)CC2)C1` (single isomer, unassigned) [Example 84, methyl 3-(4-(5-fluoro-6-methyl-2-oxoindolin-1-yl)piperidin-1-yl)-3-methylpyrrolidine-1-carboxylate]: the values for the EC50 in experiment [1] (hM1 EC50 (nM)) and in experiment [2] (hM2 EC50 (nM)) were 7.7 nM and 684 nM, respectively.

As for `CCOC(=O)N1CCC(C)(N2CCC(n3c(=O)[nH]c4ccccc43)CC2)C1` (centres unmarked) [Example 1, ethyl 3-methyl-3-(4-(2-oxo-2,3-dihydro-1H-benzo[d]imidazol-1-yl)piperidin-1-yl)pyrrolidine-1-carboxylate], the EC50 in experiment [1] (read-out: hM1 EC50) came to 4.2 nM; in experiment [2] (read-out: hM2 EC50) it was 498 nM.

Regarding `CCNC(=O)N1CCC(C)(N2CCC(n3c(=O)[nH]c4ccccc43)CC2)C1` (centres unmarked) [Example 5, N-ethyl-3-methyl-3-(4-(2-oxo-2,3-dihydro-1H-benzo[d]imidazol-1-yl)piperidin-1-yl)pyrrolidine-1-carboxamide], the EC50 in experiment [1] (read-out: hM1 EC50) turned out to be 43.3 nM; in experiment [2] (read-out: hM2 EC50), 5130 nM.

Regarding `COC(=O)N1CCC(C)(N2CCC(n3c(=O)[nH]c4cc(F)ccc43)CC2)C1` (centres unmarked) [Example 8, methyl 3-(4-(5-fluoro-2-oxo-2,3-dihydro-1H-benzo[d]imidazol-1-yl)piperidin-1-yl)-3-methylpyrrolidine-1-carboxylate], the half-maximal effective concentration (EC50) in experiment [1] (read-out: hM1 EC50) was 18.3 nM; in experiment [2] (read-out: hM2 EC50), 1280 nM.

Turning to `CC1(N2CCC(n3c(=O)[nH]c4cc(F)ccc43)CC2)CCN(C(=O)OCCF)C1` (centres unmarked) [Example 10, 2-fluoroethyl 3-(4-(5-fluoro-2-oxo-2,3-dihydro-1H-benzo[d]imidazol-1-yl)piperidin-1-yl)-3-methylpyrrolidine-1-carboxylate], the values for the concentration for a half-maximal effect (EC50) in experiment [1] (read-out: hM1 EC50) and in experiment [2] (read-out: hM2 EC50) were 26.3 nM and 2140 nM, respectively.

In the case of `C#CCOC(=O)N1CCC(C)(N2CCC(n3c(=O)[nH]c4cc(F)ccc43)CC2)C1` (centres unmarked) [Example 11, prop-2-ynyl 3-(4-(5-fluoro-2-oxo-2,3-dihydro-1H-benzo[d]imidazol-1-yl)piperidin-1-yl)-3-methylpyrrolidine-1-carboxylate], the figures for the EC50 in experiment [1] (read-out: hM1 EC50) and in experiment [2] (read-out: hM2 EC50) were 2 nM and 149 nM, respectively.

As to `CCOC(=O)N1CCC(C)(N2CCC(n3c(=O)[nH]c4ccc(C)cc43)CC2)C1` (centres unmarked) [Example 16, ethyl 3-methyl-3-(4-(6-methyl-2-oxo-2,3-dihydro-1H-benzo[d]imidazol-1-yl)piperidin-1-yl)pyrrolidine-1-carboxylate], the EC50 in experiment [1] (read-out: hM1 EC50) turned out to be 8.1 nM; in experiment [2] (read-out: hM2 EC50) it was 418 nM.

For `COC(=O)N1CCC(C)(N2CCC(n3c(=O)[nH]c4ccc(C)cc43)CC2)C1` (centres unmarked) [Example 17, methyl 3-methyl-3-(4-(6-methyl-2-oxo-2,3-dihydro-1H-benzo[d]imidazol-1-yl)piperidin-1-yl)pyrrolidine-1-carboxylate], the results for the concentration giving a half-maximal response (EC50) in experiment [1] (read-out: hM1 EC50) and in experiment [2] (read-out: hM2 EC50) were 9.7 nM and 709 nM, respectively.
